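Protocol summary: plate cells (96-well), add compound at 5 concentrations, incubate 48 h, interpolate endpoints linearly. TGI: total growth inhibition.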
How the values were obtained:
Test in all cases: inhibition of tumour cell growth, NCI panel, 48 h
[1] = system: 786-0 renal
[2] = system: K-562 leukemia
[3] = system: DMS 114 small cell lung
[4] = system: SK-MEL-2 melanoma
[5] = system: KM20L2 colon
[6] = system: SNB-19 CNS
[7] = system: HCT-116 colon
[8] = system: M19-MEL melanoma
[9] = system: U251 CNS
[10] = system: XF 498 CNS
[11] = system: HCC-2998 colon
[12] = system: COLO 205 colon
[13] = system: DMS 273 small cell lung
[14] = system: M14 melanoma
[15] = system: SK-MEL-28 melanoma
[16] = system: TK-10 renal
[17] = system: OVCAR-8 ovarian
[18] = system: UACC-62 melanoma
[19] = system: RXF 393 renal
[20] = system: CCRF-CEM leukemia
[21] = system: NCI-H23 lung
[22] = system: SF-295 CNS
[23] = system: SK-MEL-5 melanoma
[24] = system: RXF-631 renal
[25] = system: A498 renal
[26] = system: SR leukemia
[27] = system: HCT-15 colon
[28] = system: IGROV1 ovarian
[29] = system: SF-268 CNS
[30] = system: LXFL 529 NSCLC
[31] = system: NCI-H226 lung
[32] = system: OVCAR-3 ovarian
[33] = system: UO-31 renal
[34] = system: OVCAR-4 ovarian
[35] = system: HT29 colon
[36] = system: HOP-62 NSCLC
[37] = system: LOX IMVI melanoma
[38] = system: SN12C renal
[39] = system: EKVX NSCLC
[40] = system: DLD-1 colon
[41] = system: SW-620 colon
[42] = system: SNB-75 CNS
[43] = system: HL-60(TB) leukemia
[44] = system: ACHN renal
[45] = system: RPMI-8226 leukemia
[46] = system: MALME-3M melanoma
[47] = system: NCI-H460 lung
[48] = system: MOLT-4 leukemia
[49] = system: SF-539 CNS
[50] = system: A549 NSCLC
[51] = system: UACC-257 melanoma
[52] = system: CAKI-1 renal
[53] = system: OVCAR-5 ovarian
[54] = system: HOP-92 NSCLC
[55] = system: SK-OV-3 ovarian
[56] = system: KM12 colon
[57] = system: SNB-78 CNS
[58] = system: NCI-H522 lung
[59] = system: HOP-18 NSCLC

## Cc1cc(=O)oc2cc(OCCCOc3ccc4c(C)cc(=O)oc4c3)ccc12
[1]
  TGI: > 100 µM
[2]
  TGI: > 100 µM
[3]
  TGI: > 100 µM
[4]
  TGI: > 100 µM
[5]
  TGI: > 100 µM
[6]
  TGI: > 100 µM
[7]
  TGI: > 100 µM
[8]
  TGI: > 100 µM
[9]
  TGI: > 100 µM
[10]
  TGI: > 100 µM
[11]
  TGI: > 100 µM
[12]
  TGI: > 100 µM
[13]
  TGI: > 100 µM
[14]
  TGI: > 100 µM
[15]
  TGI: > 100 µM
[16]
  TGI: > 100 µM
[17]
  TGI: > 100 µM
[18]
  TGI: > 100 µM
[19]
  TGI: > 100 µM
[20]
  TGI: > 100 µM
[21]
  TGI: > 100 µM
[22]
  TGI: > 100 µM
[23]
  TGI: > 100 µM
[24]
  TGI: > 100 µM
[25]
  TGI: > 100 µM
[26]
  TGI: > 100 µM
[27]
  TGI: > 100 µM
[28]
  TGI: > 100 µM
[29]
  TGI: > 100 µM
[30]
  TGI: > 100 µM
[31]
  TGI: > 100 µM
[32]
  TGI: > 100 µM
[33]
  TGI: > 100 µM
[34]
  TGI: > 100 µM
[35]
  TGI: > 100 µM
[36]
  TGI: > 100 µM
[37]
  TGI: > 100 µM
[38]
  TGI: > 100 µM
[39]
  TGI: > 100 µM
[40]
  TGI: > 100 µM
[41]
  TGI: > 100 µM
[42]
  TGI: > 100 µM
[43]
  TGI: > 100 µM
[44]
  TGI: > 100 µM
[45]
  TGI: > 100 µM
[46]
  TGI: > 100 µM
[47]
  TGI: > 100 µM
[48]
  TGI: > 100 µM
[49]
  TGI: > 100 µM
[50]
  TGI: > 100 µM
[51]
  TGI: > 100 µM

## CC(C)OP(=S)(NC(=S)c1ccccc1)OC(C)C
[1]
  TGI: > 100 µM
[2]
  TGI: > 100 µM
[3]
  TGI: > 100 µM
[52]
  TGI: > 100 µM
[53]
  TGI: > 100 µM
[4]
  TGI: > 100 µM
[5]
  TGI: > 100 µM
[6]
  TGI: > 100 µM
[54]
  TGI: > 100 µM
[7]
  TGI: > 100 µM
[9]
  TGI: > 100 µM
[10]
  TGI: > 100 µM
[11]
  TGI: > 100 µM
[12]
  TGI: > 100 µM
[13]
  TGI: > 100 µM
[55]
  TGI: > 100 µM
[14]
  TGI: > 100 µM
[15]
  TGI: > 100 µM
[16]
  TGI: > 100 µM
[17]
  TGI: > 100 µM
[18]
  TGI: > 100 µM
[20]
  TGI: > 100 µM
[21]
  TGI: > 100 µM
[56]
  TGI: > 100 µM
[22]
  TGI: > 100 µM
[23]
  TGI: > 100 µM
[25]
  TGI: > 100 µM
[27]
  TGI: > 100 µM
[28]
  TGI: > 100 µM
[29]
  TGI: > 100 µM
[30]
  TGI: > 100 µM
[31]
  TGI: > 100 µM
[32]
  TGI: > 100 µM
[33]
  TGI: > 100 µM
[34]
  TGI: > 100 µM
[35]
  TGI: > 100 µM
[37]
  TGI: > 100 µM
[38]
  TGI: > 100 µM
[39]
  TGI: > 100 µM
[40]
  TGI: > 100 µM
[41]
  TGI: > 100 µM
[42]
  TGI: > 100 µM
[57]
  TGI: > 100 µM
[44]
  TGI: > 100 µM
[46]
  TGI: > 100 µM
[47]
  TGI: > 100 µM
[48]
  TGI: > 100 µM
[49]
  TGI: > 100 µM
[50]
  TGI: > 100 µM
[51]
  TGI: > 100 µM

## CC1=NN(C(=O)Cc2ccccc2)C(=O)/C1=C\c1ccc([N+](=O)[O-])cc1
[1]
  TGI: > 100 µM
[2]
  TGI: > 100 µM
[3]
  TGI: > 100 µM
[52]
  TGI: > 100 µM
[58]
  TGI: > 100 µM
[53]
  TGI: > 100 µM
[4]
  TGI: > 100 µM
[5]
  TGI: > 100 µM
[6]
  TGI: > 100 µM
[54]
  TGI: 9.82 µM
[7]
  TGI: > 100 µM
[8]
  TGI: > 100 µM
[9]
  TGI: > 100 µM
[10]
  TGI: > 100 µM
[11]
  TGI: > 100 µM
[12]
  TGI: > 100 µM
[55]
  TGI: > 100 µM
[14]
  TGI: > 100 µM
[15]
  TGI: > 100 µM
[16]
  TGI: > 100 µM
[17]
  TGI: > 100 µM
[18]
  TGI: > 100 µM
[19]
  TGI: > 100 µM
[20]
  TGI: > 100 µM
[21]
  TGI: > 100 µM
[56]
  TGI: > 100 µM
[22]
  TGI: > 100 µM
[23]
  TGI: > 100 µM
[25]
  TGI: > 100 µM
[27]
  TGI: > 100 µM
[28]
  TGI: > 100 µM
[29]
  TGI: > 100 µM
[30]
  TGI: > 100 µM
[31]
  TGI: > 100 µM
[32]
  TGI: > 100 µM
[33]
  TGI: > 100 µM
[34]
  TGI: > 100 µM
[35]
  TGI: > 100 µM
[36]
  TGI: > 100 µM
[37]
  TGI: > 100 µM
[38]
  TGI: > 100 µM
[39]
  TGI: > 100 µM
[40]
  TGI: > 100 µM
[41]
  TGI: > 100 µM
[57]
  TGI: > 100 µM
[44]
  TGI: > 100 µM
[45]
  TGI: > 100 µM
[46]
  TGI: > 100 µM
[47]
  TGI: > 100 µM
[48]
  TGI: > 100 µM
[49]
  TGI: > 100 µM
[50]
  TGI: > 100 µM
[51]
  TGI: > 100 µM

## COc1ccc2c(c1)[n+]([O-])c(-c1cccc(Cl)c1)c(N)[n+]2[O-]
[1]
  TGI: > 100 µM
[2]
  TGI: > 100 µM
[3]
  TGI: 65.8 µM
[59]
  TGI: > 100 µM
[52]
  TGI: > 100 µM
[58]
  TGI: 30.4 µM
[53]
  TGI: > 100 µM
[4]
  TGI: > 100 µM
[5]
  TGI: > 100 µM
[6]
  TGI: > 100 µM
[54]
  TGI: > 100 µM
[7]
  TGI: > 100 µM
[8]
  TGI: > 100 µM
[9]
  TGI: > 100 µM
[10]
  TGI: > 100 µM
[12]
  TGI: 30.3 µM
[13]
  TGI: > 100 µM
[55]
  TGI: > 100 µM
[15]
  TGI: 83 µM
[17]
  TGI: > 100 µM
[19]
  TGI: > 100 µM
[20]
  TGI: > 100 µM
[21]
  TGI: 65.6 µM
[56]
  TGI: > 100 µM
[22]
  TGI: > 100 µM
[23]
  TGI: 39.5 µM
[25]
  TGI: > 100 µM
[26]
  TGI: > 100 µM
[28]
  TGI: > 100 µM
[29]
  TGI: > 100 µM
[31]
  TGI: > 100 µM
[32]
  TGI: > 100 µM
[33]
  TGI: > 100 µM
[34]
  TGI: > 100 µM
[35]
  TGI: > 100 µM
[36]
  TGI: > 100 µM
[38]
  TGI: > 100 µM
[39]
  TGI: > 100 µM
[40]
  TGI: > 100 µM
[41]
  TGI: > 100 µM
[57]
  TGI: > 100 µM
[43]
  TGI: 95.6 µM
[44]
  TGI: > 100 µM
[46]
  TGI: > 100 µM
[47]
  TGI: > 100 µM
[48]
  TGI: > 100 µM
[49]
  TGI: > 100 µM
[50]
  TGI: > 100 µM
[51]
  TGI: 64.7 µM

Reference: PubChem BioAssay (NCI)
